Converted amounts (≈) assume the structure as drawn.
Tests used:
[1] = tested on: HEK293; experiment: cells; assay type: functional; conditions: Homo sapiens, ATCC CRL1573, HEK293; ASSAY_TEST Inhibition of Cell Viability; detection method Resazurin; Fluorescence (ex560/em590); MEDIA DMEM with 10% FBS; plate type 384well; TC; CORNING #3712; time 18 hr
[2] = tested on: Cryptococcus neoformans
Description: Antifungal activity against Cryptococcus neoformans H99 ATCC 208821 (CO-ADD:FG_002); MIC in YNB media using NBS plates, by Resazurin OD(600-570)

[3] = tested on: Candida albicans; experiment: microbe, parasite or virus in culture; conditions: ATCC 90028, ASSAY_TEST Inhibition of Fungal Growth, detection method Absorption (OD530), plate type 384well, NBS, CORNING #3640
Description: Antifungal activity against Candida albicans ATCC 90028 (CO-ADD:FG_001); MIC in YNB media using NBS plates, by OD630

[4] = tested on: Pseudomonas aeruginosa; experiment: microbe, parasite or virus in culture; conditions: ATCC 27853, 18 h, ASSAY_TEST Inhibition of Bacterial Growth, detection method Absorption (OD600), MEDIA CAMHB, plate type 384well, NBS, CORNING #3640
Description: Antibacterial activity against Pseudomonas aeruginosa ATCC 27853 (CO-ADD:GN_042); MIC in CAMBH media using NBS plates, by OD(600)

[5] = tested on: Acinetobacter baumannii; experiment: microbe, parasite or virus in culture; conditions: ATCC 19606, 18 h, ASSAY_TEST Inhibition of Bacterial Growth, detection method Absorption (OD600), MEDIA CAMHB, plate type 384well, NBS, CORNING #3640
Description: Antibacterial activity against Acinetobacter baumannii ATCC 19606 (CO-ADD:GN_034); MIC in CAMBH media using NBS plates, by OD600

[6] = tested on: Klebsiella pneumoniae; experiment: microbe, parasite or virus in culture; conditions: ATCC 700603, 18 h, ASSAY_TEST Inhibition of Bacterial Growth, detection method Absorption (OD600), MEDIA CAMHB, plate type 384well, NBS, CORNING #3640
Description: Antibacterial activity against Klebsiella pneumoniae MDR ATCC 70063 (CO-ADD:GN_003); MIC in CAMBH media using NBS plates, by OD(600)

[7] = tested on: Staphylococcus aureus; experiment: microbe, parasite or virus in culture; conditions: ATCC 43300, 18 h, ASSAY_TEST Inhibition of Bacterial Growth, detection method Absorption (OD600), MEDIA CAMHB, plate type 384well, NBS, CORNING #3640
Description: Antibacterial activity against Staphylococcus aureus MRSA ATCC 43300 (CO-ADD:GP_020); MIC in CAMBH media, using NBS plates, by OD(600)

[8] = tested on: Escherichia coli; experiment: microbe, parasite or virus in culture; conditions: ATCC 25922, 18 h, ASSAY_TEST Inhibition of Bacterial Growth, detection method Absorption (OD600), MEDIA CAMHB, plate type 384well, NBS, CORNING #3640
Description: Antibacterial activity against Escherichia coli ATCC 25922 (CO-ADD:GN_001); MIC in CAMBH media using NBS plates, by OD(600)

SMILES	CC50 [1]	MIC [2]	MIC [3]	MIC [4]	MIC [5]	MIC [6]	MIC [7]	MIC [8]
Nc1ccc(Cn2ccc3c4c(N)nc(N)nc4ccc32)cc1	> 10 µM	> 10 µM	> 10 µM	5 µM (≈ 1.52 µg/mL)	> 10 µM	5 µM (≈ 1.52 µg/mL)	1.25 µM (≈ 0.38 µg/mL)	1.25 µM (≈ 0.38 µg/mL)
CCN1CCCC(Sc2nc3c(=S)n(C)c(=O)n(C)c3[nH]2)C1 (configuration not stated)	> 10 µM	> 10 µM	> 10 µM	> 10 µM	> 10 µM	> 10 µM	> 10 µM	> 10 µM
Cc1ccnc(NC(c2ccccc2)c2ccc3cccnc3c2O)c1 (configuration not stated)	> 10 µM	> 10 µM	> 10 µM	> 10 µM	> 10 µM	> 10 µM	> 10 µM	> 10 µM
CCN(CC)c1ccc(C(=C2C=CC(=[N+](CC)CC)C=C2)c2ccc(N(CC)CC)cc2)cc1	1.47 µM	1.25 µM	≤ 0.0781 µM	2.5 µM	> 10 µM	> 10 µM	≤ 0.0781 µM	> 10 µM
NC(=S)c1cn(C2OC(CO)C(O)C2O)c2ncnc(N)c12 (configuration not stated)	0.521 µM	> 10 µM	10 µM (≈ 3.25 µg/mL)	> 10 µM	> 10 µM	> 10 µM	> 10 µM	> 10 µM
CCOC(=O)/C(C#N)=C1\SS/C(=C(/C#N)C(=O)OCC)S1	> 10 µM	> 10 µM	> 10 µM	> 10 µM	> 10 µM	> 10 µM	> 10 µM	> 10 µM
Cc1ccc([S+]([O-])c2ccc([N+](=O)[O-])c3nonc23)cc1 (configuration not stated)	> 10 µM	> 10 µM	> 10 µM	> 10 µM	> 10 µM	> 10 µM	> 10 µM	> 10 µM
CN(C)c1ccc(/N=N/c2ccccn2)cc1	> 10 µM	> 10 µM	10 µM (≈ 2.26 µg/mL)	> 10 µM	> 10 µM	> 10 µM	> 10 µM	> 10 µM
Nc1ccc(S(=O)(=O)Nc2cnc3ccccc3n2)cc1 [SULFAQUINOXALINE]	> 10 µM	> 10 µM	> 10 µM	> 10 µM	> 10 µM	> 10 µM	> 10 µM	> 10 µM
O=C1C=CC(=O)N1c1ccc(I)cc1Cl	> 10 µM	> 10 µM	> 10 µM	> 10 µM	> 10 µM	> 10 µM	> 10 µM	> 10 µM
O=C1C(Cl)=C(NCCc2ccccc2)C(=O)c2ccccc21	> 10 µM	0.625 µM (≈ 0.195 µg/mL)	0.625 µM (≈ 0.195 µg/mL)	> 10 µM	> 10 µM	> 10 µM	> 10 µM	> 10 µM
C=C(C)C(=O)Oc1ccc(/N=N/c2ccc(C)cc2)ccc1=O	> 10 µM	> 10 µM	10 µM (≈ 3.08 µg/mL)	> 10 µM	> 10 µM	> 10 µM	> 10 µM	> 10 µM
Cc1ccc2ccc(C#N)cc2c1O	> 10 µM	> 10 µM	> 10 µM	> 10 µM	> 10 µM	> 10 µM	> 10 µM	> 10 µM
Oc1c(/N=N/c2nnn[nH]2)ccc2ccccc12	> 10 µM	> 10 µM	> 10 µM	> 10 µM	> 10 µM	> 10 µM	> 10 µM	> 10 µM
C=Cc1cc(OC)c2c(c1)c(=O)oc1c2cc(OC)c2c(O)ccc(C3OC(C)C(O)C(C)(O)C3O)c21 (configuration not stated)	1.85 µM	> 10 µM	> 10 µM	> 10 µM	> 10 µM	> 10 µM	0.156 µM (≈ 0.0795 µg/mL)	> 10 µM
O=[N+]([O-])c1ccc(Sc2cccc[n+]2[O-])c2nonc12	2.53 µM	10 µM (≈ 2.9 µg/mL)	1.25 µM (≈ 0.363 µg/mL)	> 10 µM	> 10 µM	> 10 µM	> 10 µM	> 10 µM
CN(C)CCOc1ccc2c(c1)C(=O)/C(=C\c1ncc([N+](=O)[O-])n1C)C2	1.55 µM	> 10 µM	> 10 µM	> 10 µM	> 10 µM	> 10 µM	5 µM (≈ 1.78 µg/mL)	0.156 µM (≈ 0.0557 µg/mL)
Clc1ccc(SCNc2ccccc2Cl)cc1	> 10 µM	> 10 µM	> 10 µM	> 10 µM	> 10 µM	> 10 µM	> 10 µM	> 10 µM
O=C(Nc1ccc(C2=NCCN2)cc1)c1ccc(C(=O)Nc2ccc(C3=NCCN3)cc2)c(Cl)c1	> 10 µM	> 10 µM	> 10 µM	> 10 µM	> 10 µM	> 10 µM	> 10 µM	> 10 µM
Oc1ccc2ccccc2c1/N=N/c1nccs1	> 10 µM	2.5 µM (≈ 0.638 µg/mL)	10 µM (≈ 2.55 µg/mL)	> 10 µM	> 10 µM	> 10 µM	> 10 µM	> 10 µM
NC1(N2SC(S)=C3CCCC=C32)CCCCC1	> 10 µM	> 10 µM	> 10 µM	> 10 µM	> 10 µM	> 10 µM	10 µM (≈ 2.68 µg/mL)	> 10 µM
O=[N+]([O-])c1cc([N+](=O)[O-])c2cccnc2c1O	> 10 µM	> 10 µM	10 µM (≈ 2.35 µg/mL)	> 10 µM	> 10 µM	> 10 µM	> 10 µM	> 10 µM
Nc1nc(N)c2c(ccc3[nH]ccc32)n1	> 10 µM	> 10 µM	> 10 µM	> 10 µM	> 10 µM	> 10 µM	> 10 µM	> 10 µM
C/C(=N/NC(=S)N1CC2CCC(CC2)C1)c1cnccn1	> 10 µM	> 10 µM	2.5 µM (≈ 0.759 µg/mL)	> 10 µM	> 10 µM	> 10 µM	> 10 µM	> 10 µM
Nc1ncnc2c1ncn2C1OC(COS(N)(=O)=O)C(O)C1O (configuration not stated)	0.227 µM	> 10 µM	> 10 µM	> 10 µM	> 10 µM	> 10 µM	5 µM (≈ 1.73 µg/mL)	> 10 µM
CC(C)=NNc1ncnc2[nH]cnc12	> 10 µM	10 µM (≈ 1.9 µg/mL)	2.5 µM (≈ 0.476 µg/mL)	> 10 µM	> 10 µM	> 10 µM	> 10 µM	> 10 µM
O=C(O)C(=O)Nc1nc[nH]n1	> 10 µM	> 10 µM	> 10 µM	> 10 µM	> 10 µM	> 10 µM	> 10 µM	> 10 µM
Cn1cnc([N+](=O)[O-])c1S(=O)(=O)Oc1cccc2ccccc12	8.21 µM	> 10 µM	≤ 0.0781 µM	> 10 µM	> 10 µM	> 10 µM	> 10 µM	> 10 µM
N=C(N)NCCCS(=O)(=O)Nc1ccc(Nc2c3ccccc3nc3cc([N+](=O)[O-])ccc23)cc1	> 10 µM	> 10 µM	> 10 µM	> 10 µM	> 10 µM	> 10 µM	> 10 µM	> 10 µM

From ChEMBL document CHEMBL4296182, “CO-ADD screening of NIH NCI Diversity Set V”
